# From patent US20220104493A1, “HERBICIDAL COMPOUNDS” (SYNGENTA CROP PROTECTION AG, priority 2019, published 2022)
# Legend:
# Type in all cases: in vivo
# [1] = system: Euphorbia heterophylla (EPHHL); assay: Post-emergence efficacy, Method A; conditions: 500 g/Ha, 100=total damage to plant, 0=no damage, evaluated after 7 and 14 days, read-out: Control of weed species after post-emergence application, EPHHL
# [2] = system: Digitaria sanguinalis (DIGSA); assay: Post-emergence efficacy, Method A; conditions: 500 g/Ha, 100=total damage to plant, 0=no damage, evaluated after 7 and 14 days, read-out: Control of weed species after post-emergence application, DIGSA
# [3] = system: Chenopodium album (CHEAL); assay: Post-emergence efficacy, Method A; conditions: 500 g/Ha, 100=total damage to plant, 0=no damage, evaluated after 7 and 14 days, read-out: Control of weed species after post-emergence application, CHEAL
# [4] = system: Helianthus annus (HELAN); assay: Post-emergence efficacy, Method B; conditions: second set of rows of Table C (evaluated after 7 and 14 days, day not printed)
# Experimental: (§1) Seeds of a variety of test species were sown in standard loam based soil in pots. Plants were cultivated from between 21 and 28 days (post-emergence) under controlled conditions in a glasshouse (at 24/16° C., day/night; 14 hours light; 65% humidity) for warm climate species and (at 20/16° C. day/night; 15 hours light; 65% humidity) for cool climate species.
# (§2) The plants were sprayed with an aqueous spray solution derived from dissolving the technical active ingredient formula in a small amount of acetone and a special solvent and emulsifier mixture referred to as IF50 (11.12% Emulsogen EL360 TM+44.44% N-methylpyrrolidone+44.44% Dowanol DPM glycol ether), to create a 50 g/l solution which was then diluted to required concentration using 0.5% or 1% Empicol ESC70 (Sodium lauryl ether sulphate)+1% ammonium sulphate as diluent.
# (§3) The delivery of the aqueous spray solution was via a laboratory track sprayer which delivered the aqueous spray composition at a rate of 200 litres per hectare, using a flat fan nozzle (Teejet 11002VS) and an application volume of 200 litre/ha (at 2 bar).
# (§4) The test plants were then grown in a glasshouse under controlled conditions (at 24/16° C., day/night; 14 hours light; 65% humidity) for warm climate species and (at 20/16° C. day/night; 15 hours light; 65% humidity) for cool climate species and watered twice daily. After 7 and 14 days the test was evaluated (100=total damage to plant; 0=no damage to plant).
# (§5) Brassica napus (BRSNN), Solanum turberosum (SOLTU), Glycine Max (GLXMA), and Helianthus annus (HELAN)
# [5] = system: Glycine Max (GLXMA); assay: Post-emergence efficacy, Method B
# Experimental: as §1, §2, §3, §4, §5
# [6] = system: Solanum turberosum (SOLTU); assay: Post-emergence efficacy, Method B
# Experimental: as §1, §2, §3, §4, §5
# [7] = system: Brassica napus (BRSNN); assay: Post-emergence efficacy, Method B
# Experimental: as §1, §2, §3, §4, §5
# [8] = system: Amaranthus palmeri (AMAPA); assay: Post-emergence efficacy, Method A; conditions: 500 g/Ha, 100=total damage to plant, 0=no damage, evaluated after 7 and 14 days, read-out: Control of weed species after post-emergence application, AMAPA
# [9] = system: Eleusine indica (ELEIN); assay: Post-emergence efficacy, Method A; conditions: 500 g/Ha, 100=total damage to plant, 0=no damage, evaluated after 7 and 14 days, read-out: Control of weed species after post-emergence application, ELEIN
# [10] = system: Ipomoea hederacea (IPOHE); assay: Post-emergence efficacy, Method A; conditions: 500 g/Ha, 100=total damage to plant, 0=no damage, evaluated after 7 and 14 days, read-out: Control of weed species after post-emergence application, IPOHE
# [11] = system: Setaria faberi (SETFA); assay: Post-emergence efficacy, Method A; conditions: 500 g/Ha, 100=total damage to plant, 0=no damage, evaluated after 7 and 14 days, read-out: Control of weed species after post-emergence application, SETFA
# [12] = system: Echinochloa crus-galli (ECHCG); assay: Post-emergence efficacy, Method A; conditions: 500 g/Ha, 100=total damage to plant, 0=no damage, evaluated after 7 and 14 days, read-out: Control of weed species after post-emergence application, ECHCG
# [13] = system: Lolium perenne (LOLPE); assay: Post-emergence efficacy, Method A; conditions: 500 g/Ha, 100=total damage to plant, 0=no damage, evaluated after 7 and 14 days, read-out: Control of weed species after post-emergence application, LOLPE
# [14] = 50 g/Ha, first set of rows of Table C (evaluated after 7 and 14 days, day not printed)
# [15] = 50 g/Ha, second set of rows of Table C (evaluated after 7 and 14 days, day not printed)
# [16] = 150 g/Ha, first set of rows of Table C (evaluated after 7 and 14 days, day not printed)
# [17] = 150 g/Ha, second set of rows of Table C (evaluated after 7 and 14 days, day not printed)
# [18] = 600 g/Ha, first set of rows of Table C (evaluated after 7 and 14 days, day not printed)
# [19] = 600 g/Ha, second set of rows of Table C (evaluated after 7 and 14 days, day not printed)
compound,measurement,setting,value
"O=S(=O)([O-])C[n+]1ccc(-c2ncns2)cc1 [Compound A4, [4-(1,2,4-thiadiazol-5-yl)pyridin-1-ium-1-yl]methanesulfonate]",pest or weed control at 500 g/ha,[1],100%
same,pest or weed control at 500 g/ha,[2],70%
same,pest or weed control at 500 g/ha,[3],100%
same,"Control after post-emergence application, HELAN (100=total damage to plant; 0=no damage to plant)",[4]; 50 g/Ha,97
same,"Control after post-emergence application, HELAN (100=total damage to plant; 0=no damage to plant)",[4]; 150 g/Ha,100
same,"Control after post-emergence application, HELAN (100=total damage to plant; 0=no damage to plant)",[4]; 600 g/Ha,100
same,"Control after post-emergence application, GLXMA (100=total damage to plant; 0=no damage to plant)",[5]; [14],45
same,"Control after post-emergence application, GLXMA (100=total damage to plant; 0=no damage to plant)",[5]; [15],52
same,"Control after post-emergence application, GLXMA (100=total damage to plant; 0=no damage to plant)",[5]; [16],83
same,"Control after post-emergence application, GLXMA (100=total damage to plant; 0=no damage to plant)",[5]; [17],62
same,"Control after post-emergence application, GLXMA (100=total damage to plant; 0=no damage to plant)",[5]; [18],93
same,"Control after post-emergence application, GLXMA (100=total damage to plant; 0=no damage to plant)",[5]; [19],85
same,"Control after post-emergence application, SOLTU (100=total damage to plant; 0=no damage to plant)",[6]; [14],15
same,"Control after post-emergence application, SOLTU (100=total damage to plant; 0=no damage to plant)",[6]; [15],50
same,"Control after post-emergence application, SOLTU (100=total damage to plant; 0=no damage to plant)",[6]; [16],30
same,"Control after post-emergence application, SOLTU (100=total damage to plant; 0=no damage to plant)",[6]; [17],60
same,"Control after post-emergence application, SOLTU (100=total damage to plant; 0=no damage to plant)",[6]; [18],82
same,"Control after post-emergence application, SOLTU (100=total damage to plant; 0=no damage to plant)",[6]; [19],67
same,"Control after post-emergence application, BRSNN (100=total damage to plant; 0=no damage to plant)",[7]; [14],23
same,"Control after post-emergence application, BRSNN (100=total damage to plant; 0=no damage to plant)",[7]; [15],43
same,"Control after post-emergence application, BRSNN (100=total damage to plant; 0=no damage to plant)",[7]; [16],32
same,"Control after post-emergence application, BRSNN (100=total damage to plant; 0=no damage to plant)",[7]; [17],57
same,"Control after post-emergence application, BRSNN (100=total damage to plant; 0=no damage to plant)",[7]; [18],43
same,"Control after post-emergence application, BRSNN (100=total damage to plant; 0=no damage to plant)",[7]; [19],80
same,pest or weed control at 500 g/ha,[8],100%
same,pest or weed control at 500 g/ha,[9],80%
same,pest or weed control at 500 g/ha,[10],100%
same,pest or weed control at 500 g/ha,[11],80%
same,pest or weed control at 500 g/ha,[12],70%
same,pest or weed control at 500 g/ha,[13],80%
